# Source: US20060079573A1, “Methods and compositions for preventing vasospasm” (priority 2004, published 2006)
# What was measured:
# canine brachial arteries [1] = experiment: TUNEL assay of endothelial and smooth muscle cell apoptosis in vessels; type: cell-based
# Description: Endothelial and smooth muscle cell apoptosis was evaluated using the terminal deoxynucleotidyl transferase (TdT)-mediated dUTP nick end labeling (TUNEL) method. In preparation for the TUNEL assay, the vessels were embedded in optimal cutting temperature compound (OCT, Sakura Finetek, Torrance, Calif.). Cryosections from frozen tissue were obtained using a Hacker-Bright cryostat and thaw-mounted onto Fisher-Plus slides (Fisher Scientific). Determination of apoptosis was performed using an in situ cell death detection kit (Roche Applied Science, Indianapolis, Ind.). DNA strand breaks were labeled with fluorescein-dUTP, followed by the addition of a secondary, antifluorescein antibody conjugated with alkaline phosphatase, a converter which generates a red color from Vector Red substrate. Folio wing counterstaining with hematoxylin and dehydration in graded alcohols, the number of apoptotic cells (indicated by red-stained nuclei) per high power field (HPF) was counted under light microscopy and is expressed as a percentage of the total number of nuclei per HPF.
# canine brachial arteries [2] = experiment: Endothelial-independent smooth muscle relaxation to SNP after U46 pre-constriction; type: cell-based; conditions: 48 h after 1 mM WT; lower SNP concentrations (≦0.5 μM); pre-constricted with 3 μM U46; controls 87.49±2.91%
# Description: Cardiovasc. Surg., 126:179-85; van Son et al. (1992) Detrimental sequelae on the wall of the internal mammary artery caused by hydrostatic dilation with diluted papaverine solution, J. Thorac. Cardiovasc. Surg., 104:972-6]. Therefore, to test the vasorelaxation capacity of the vessels after treatment with WT, the vessels were pre-constricted with 3 μM U46, and then exposed to incrementally increasing concentrations (50 nM to […]) of SNP, a direct smooth muscle dilator.
# The capacity of the vascular smooth muscle to relax independently of the endothelium was evaluated by pre-constricting vessels with U46, followed by exposure to incrementally increasing concentrations of SNP, a direct smooth muscle relaxing agent. […] Two hours after soaking, control vessels relaxed 99.04±7.30% from their pre-constricted state in response to SNP.
# canine brachial arteries [3] = experiment: Histologic evaluation (H and E) of vessels for morphologic injury; type: cell-based; conditions: 48 h after 1 mM WT treatment and incubation
# Description: Prolonged storage in cell culture environments has the potential to cause cellular injury, which might impair smooth muscle function. To confirm that the lack of the observed contraction in WT-treated vessels was not a function of cellular damage, a subset of vessels was tested for histological signs of injury and apoptosis after treatment with WT and incubation for 48 h. For histology, formalin-fixed vessels were embedded in paraffin blocks, cut into sections for slide preparation, and stained with hematoxylin and eosin (H and E) prior to examination for signs of morphologic damage.
# canine brachial arteries [4] = experiment: Contractile function of artery segments in organ chambers after WT soak; type: cell-based; conditions: for force of contraction in response to 5HT: 1 μM 5-HT; for force of contraction in response to NE: 1 μM NE; for force of contraction in response to U46: 3 μM U46619; for force of contraction in response to KCl: 60 mM KCl
# Excerpt: Canine brachial arteries, equivalents of radial arteries in humans, were used in this study since they were more readily available and we could obtain longer segments than human radial arteries. Based on previous publications, it has been determined that the contractile and relaxation properties of these canine vessels are similar to the properties of human radial arteries in organ chamber studies [Corvera et al. (2003) Pretreatment with phenoxybenzamine attenuates the radial artery's vasoconstrictor response to α-adrenergic stimuli, J. Thorac. Cardiovasc. Surg., 126:1549-54; Velez et al., 2001]. The arteries were harvested as a pedicle graft and stored in 4° C. KH buffer (in mM/1: glucose 11; magnesium sulfate, 1.2; potassium phosphate 1.2; KCl, 4.7; sodium chloride 118; calcium chloride, 2.5) at pH 7.4 until ready for use.
# The vessels were carefully skeletonized, cut into 4-5 mm segments, and soaked in a 1 mM solution of WT in KH buffer and 10% DMSO (used to increase solubility of WT), pH 7.4 at 37° C. for 60 min. Control vessels were soaked in KH buffer with 10% DMSO only. The vessels were then rinsed well with KH to remove all unbound drug. For testing of contractile responses, the arterial segments were mounted on steel hooks in glass organ chambers (Radnoti Glass, Monrovia, Calif.) in KH buffer at pH 7.4 and 37° C., and continuously bubbled with a gas mixture of 95% O2 and 5% CO2. One steel hook was held stationary while the other was attached to a force transducer. Force generated by the vessels in response to various agonists was recorded using an analog-to-digital converter and SPECTRUM Cardiovascular Acquisition and Analysis software (Wake Forest University, Winston-Salem, N.C.). The vessel segments were allowed to stabilize at a baseline tension of 3 g for 60 min prior to testing the effect of various vasoconstrictor agents. During this time, the buffer was changed every 20 min. The total time from the end of WT treatment until contractile responses were tested was approximately 2 h. The contractile responses to 1 μM NE (α1 receptor-dependent, calcium-dependent), 1 μM 5-HT (serotonin receptor-dependent, calcium-independent), 3 μM U46 (thromboxane A2 receptor-dependent, calcium-independent), and 60 mM KCl (receptor-independent depolarizing agent) were then quantified. […] The order in which the constricting agents were administered was varied randomly in order to avoid the effects of one drug on another. […] The vessels were thoroughly washed and allowed to stabilize for 20 min between vasoconstrictor agents. The resting tension was adjusted to 3 g during each stabilization period.
# To test the duration of MLCK inhibition by the 60 min pre-treatment with 1 mM WT, a subset of vessels were harvested and treated with WT as above, then incubated in drug-free sterile culture medium [Dulbecco's modified eagle medium (Sigma, St Louis Mo.), with 10% newborn calf serum (Gibco, Inc.) and 1% penicillin-streptomycin] under sterile conditions for 48 h in an incubator aerated with 95% O2 and 5% CO2. The culture medium was changed every 12 h during this time. At the end of the 48 h period, the vessels were removed, rinsed with KH buffer, and contractile responses were tested as described above.
# radial artery = conditions: cited from earlier work
# [5] = tested on: radial and internal mammary arteries; conditions: cited from earlier work
compound,measurement,setting,value
"COC[C@H]1OC(=O)c2coc3c2[C@@]1(C)C1=C(C3=O)[C@@H]2CCC(=O)[C@@]2(C)C[C@H]1OC(C)=O [WT, Wortmannin]",TUNEL-positive cells in the smooth muscle,"canine brachial arteries [1]; 48 h after WT treatment and incubation, control 0.35±0.16%",4.63±1.04%
same,TUNEL-positive cells in the endothelium,"canine brachial arteries [1]; 48 h after WT treatment and incubation, control 4.47±2.90%, P=0.058",16.88%±4.90
same,apoptotic nuclei in smooth muscle layer versus control,"canine brachial arteries [1]; FIG. 3, 400×",greater extent of apoptotic nuclei (black arrows) stained red by the TUNEL method in the smooth muscle layer of control vessels (A) as compared to WT-treated vessels
same,apoptotic nuclei in endothelium versus control,"canine brachial arteries [1]; FIG. 4, 400×",greater extent of apoptotic nuclei (black arrows) stained red by the TUNEL method in the endothelium of control vessels (A) as compared to WT-treated vessels
same,relaxation response to SNP from pre-constricted state,canine brachial arteries [2],76.01±2.60%
same,"microscopic evidence of injury, endothelium and elastic lamina (H and E)",canine brachial arteries [3],appeared normal
same,"microscopic evidence of injury, smooth muscle (H and E)",canine brachial arteries [3],minimal hypereosinophilic staining in the smooth muscle
same,force of contraction in response to 5HT,"canine brachial arteries [4]; 2 h after 60 min soak in 1 mM WT, control 9.64±0.67 g",0.92 ± 0.35 g
same,force of contraction in response to 5HT,"canine brachial arteries [4]; 48 h incubation after 1 mM WT soak, control 12.42±0.70 g",4.67 ± 0.39 g
same,force of contraction in response to NE,"canine brachial arteries [4]; 2 h after 60 min soak in 1 mM WT, control 7.22±0.37 g",0.19 ± 0.07 g
same,force of contraction in response to NE,"canine brachial arteries [4]; 48 h incubation after 1 mM WT soak, control 6.95±0.47 g",2.36 ± 0.17 g
same,force of contraction in response to U46,"canine brachial arteries [4]; 2 h after 60 min soak in 1 mM WT, control 10.99±0.50 g",1.25 ± 0.17 g
same,force of contraction in response to U46,"canine brachial arteries [4]; 48 h incubation after 1 mM WT soak, control 9.29±0.74 g",5.42 ± 0.34 g
same,force of contraction in response to KCl,"canine brachial arteries [4]; 2 h after 60 min soak in 1 mM WT, control 15.00±0.48 g",1.98 ± 0.27 g
same,force of contraction in response to KCl,"canine brachial arteries [4]; 48 h incubation after 1 mM WT soak, control 13.32±0.60 g",7.49 ± 0.48 g
same,contractile activity regained,canine brachial arteries [4]; 48 h after treatment,about 50%
same,reduction of contractile responses / vasoconstriction,canine brachial arteries [4]; at 48 h following washout,50%
COc1ccc(Cc2nccc3cc(OC)c(OC)cc23)cc1OC [papaverine],effect on contraction after washout (in words),radial artery; after the drug has been washed away,virtually no effect after the drug has been washed away
same,effect on endothelium (in words),[5],causes both impairment of endothelial function and endothelial cell apoptosis
CC(COc1ccccc1)N(CCCl)Cc1ccccc1 (centres unmarked) [phenoxybenzamine],prevention of alpha-agonist-induced contractions (in words),radial artery; 48 h following treatment,effective in preventing alpha-agonist-induced contractions at 48 h following treatment
